Assay results as given in EP4079295A1, “COMPOSITION HAVING IMPROVED SOLUBILITY AND BIOAVAILABILITY OF OLAPARIB” (Samyang Holdings Corporation, priority 2019, dated 2021).
Converted amounts (≈) assume the structure as drawn.

Legend:
[1] = Test Example 1: drug solubility, simple mixture versus solid dispersion; assay type: physicochemical; conditions: thermodynamic from solid, 20 ml, amount corresponding to 400 mg of Olaparib, 37°C, 100 rpm
Description: To 20 ml of distilled water and pH 1.2 buffer, each of the solid dispersions of Example 1 and 4 and the simple mixtures of Comparative Examples 2 and 3 corresponding to 400 mg of Olaparib was added, and stirred in an incubator at 37°C with 100 rpm for 1 hour. The test solution was filtered with RC syringe filter (0.2 µm) and 1 mL of the filtered solution was taken and diluted with 2 mL of the following diluent solution, and then the amount was measured according to Olaparib amount analysis method.
• 1) Diluent solution preparation Diluent solution - water (DW): acetonitrile (CAN)=1:1 • 2) Operation • Detector: UV absorption spectrometer 254 nm • Column: Nova-Pak C18 Column, 60Å, 4 µm, 3.9 mm × 150 mm • Flow rate: 1.2 ml/min • Injection amount: 5 µl • Column temperature: 35°C • Run time: 16 min • Mobile phase [Table 4]

[2] = cited from earlier work

## O=C(c1cc(Cc2n[nH]c(=O)c3ccccc23)ccc1F)N1CCN(C(=O)C2CC2)CC1 [Olaparib]
[1]; simulated gastric fluid, pH 1.2 buffer
  solubility at 1 h: 100 µg/mL (≈ 230 µM)
[1]; water (distilled water)
  solubility at 1 h: 100 µg/mL (≈ 230 µM)
[2]
  water solubility: 100 to 130 µg/mL
[2]; weak acidic
  pKa: 12.07
